Source: ChEMBL document CHEMBL1201862, “PubChem BioAssay data set” (2004)
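Growth conditions: 96-well plates. Treatment: test compound, 48 hours, 5 concentrations. Analysis: linear interpolation between bracketing concentrations; unreached endpoints set to highest concentration. Here, GI50 denotes the concentration required for 50% inhibition of growth.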 Calls of active or inactive are those of the source. No stated cut-off is given here; in the data, active = GI50 up to about 1.1 µM and inactive = higher.

How the values were obtained:
Experiment in all cases: NCI anticancer screen, dose series, 48 h
[1] = tested on: 786-0
[2] = tested on: BT-549
[3] = tested on: CAKI-1
[4] = tested on: HCC 2998
[5] = tested on: HOP-92
[6] = tested on: MCF7
[7] = tested on: NCI-H23
[8] = tested on: NCI-H522
[9] = tested on: NCI/ADR-RES
[10] = tested on: RPMI-8226
[11] = tested on: RXF 393
[12] = tested on: SF-539
[13] = tested on: SK-MEL-5
[14] = tested on: SK-OV-3
[15] = tested on: SN12C
[16] = tested on: SR
[17] = tested on: UO-31
[18] = tested on: SK-MEL-28
[19] = tested on: Malme-3M

Measured: GI50

Fc1ccc(/C=C2\COCC3=C2NC(=S)NC3c2ccc(F)cc2)cc1 (stereo not given)
inactive: [1] 18.3 µM | [2] 19 µM | [3] 31.1 µM | [4] 18.5 µM | [5] 18.7 µM | [6] 19.1 µM | [7] 20.6 µM | [8] 16.4 µM | [9] 19.1 µM | [10] 16.5 µM | [11] 16.6 µM | [12] 20 µM | [13] 19.4 µM | [14] 31 µM | [15] 18.5 µM | [16] 19 µM | [17] 17.7 µM

CC(C)(C)c1cc2c(O)c(c1)C(c1ccccc1)c1cc(C(C)(C)C)cc(c1O)Cc1cc(C(C)(C)C)cc(c1O)C(c1ccccc1)c1cc(C(C)(C)C)cc(c1O)C2 (stereo not given)
inactive: [1] > 100 µM | [2] > 100 µM | [3] > 100 µM | [4] > 100 µM | [5] > 100 µM | [6] > 100 µM | [7] > 100 µM | [8] > 100 µM | [9] > 100 µM | [11] > 100 µM | [12] > 100 µM | [18] > 100 µM | [13] > 100 µM | [15] > 100 µM | [16] 62.7 µM | [17] > 100 µM

OC(CC(CC(O)(C(F)(F)Cl)C(F)(F)Cl)=NNc1ccccc1)(C(F)(F)Cl)C(F)(F)Cl
inactive: [1] 4.54 µM | [2] 1.94 µM | [3] 2.9 µM | [4] 4.23 µM | [5] 2.01 µM | [6] 2.94 µM | [19] 3.7 µM | [7] 2.41 µM | [8] 4.4 µM | [9] 4.05 µM | [10] > 10 µM | [11] 2.8 µM | [12] 2.95 µM | [18] 2.92 µM | [13] 1.71 µM | [14] 4.04 µM | [15] 3.36 µM | [16] 5.79 µM

CCOC(=O)c1nc2cc(C(F)(F)F)ccc2nc1Nc1cc(OC)c(OC)c(OC)c1
inactive: [1] > 100 µM | [2] > 100 µM | [3] > 100 µM | [4] > 100 µM | [5] > 100 µM | [6] > 100 µM | [19] > 100 µM | [7] > 100 µM | [8] > 100 µM | [9] > 100 µM | [10] > 100 µM | [11] > 100 µM | [12] > 100 µM | [18] > 100 µM | [13] > 100 µM | [14] > 100 µM | [15] > 100 µM | [16] > 100 µM | [17] > 100 µM

COc1ccc(/C=C(\C(=O)OCC(C)C)c2ccc(OC)c(OC)c2)cc1OC
inactive: [1] > 100 µM | [2] > 100 µM | [3] > 100 µM | [4] > 100 µM | [5] > 100 µM | [6] > 100 µM | [7] > 100 µM | [8] > 100 µM | [9] > 100 µM | [10] > 100 µM | [11] > 100 µM | [12] > 100 µM | [18] > 100 µM | [13] > 100 µM | [15] > 100 µM | [16] > 100 µM | [17] > 100 µM

N#C/C(C(=O)Nc1ccc(Cl)cc1)=C(/N)N1CCCCC1
inactive: [1] > 100 µM | [2] > 100 µM | [3] > 100 µM | [4] > 100 µM | [5] > 100 µM | [6] > 100 µM | [7] 64.4 µM | [9] 79.3 µM | [10] > 100 µM | [12] 75.7 µM | [18] > 100 µM | [13] > 100 µM | [14] 72.6 µM | [15] > 100 µM | [16] > 100 µM | [17] 22.3 µM

Brc1c(C#CCC2CCCCC2)ccc(C#CCC2CCCCC2)c1Br
inactive: [1] > 100 µM | [2] > 100 µM | [3] > 100 µM | [4] > 100 µM | [5] > 100 µM | [6] > 100 µM | [19] > 100 µM | [8] > 100 µM | [9] > 100 µM | [10] > 100 µM | [11] > 100 µM | [12] > 100 µM | [18] > 100 µM | [13] > 100 µM | [15] > 100 µM | [16] > 100 µM

COC1=C(OC)C(=O)C(Cc2c(C)nc3sccn23)=C(C)C1=O
inactive: [1] 19.1 µM | [2] 16.1 µM | [3] 17.9 µM | [4] 20.9 µM | [6] 20.1 µM | [19] 10.9 µM | [7] 10.9 µM | [8] 6.64 µM | [9] 14.4 µM | [10] 2.48 µM | [11] 22.8 µM | [12] 16.5 µM | [18] 11 µM | [13] 4.68 µM | [14] 13.7 µM | [15] 15.8 µM | [16] 14.5 µM | [17] 13.6 µM

Cc1cc2ccccc2n2c1nc1ccccc12
inactive: [1] > 100 µM | [2] > 100 µM | [4] > 100 µM | [5] > 100 µM | [6] > 100 µM | [19] > 100 µM | [7] > 100 µM | [9] > 100 µM | [10] > 100 µM | [11] > 100 µM | [12] > 100 µM | [18] > 100 µM | [13] > 100 µM | [14] > 100 µM | [15] > 100 µM | [16] > 100 µM | [17] > 100 µM

Cc1ccc(S(=O)(=O)n2cc(C#N)c(C#N)c2)cc1
inactive: [1] 36.2 µM | [2] 20.6 µM | [3] 26.1 µM | [4] 24.3 µM | [5] 31 µM | [6] 22.3 µM | [19] 15.6 µM | [7] 29.8 µM | [8] 15.4 µM | [9] 31.8 µM | [11] 32.3 µM | [12] 19.6 µM | [18] 15.5 µM | [13] 21.3 µM | [14] 19.1 µM | [15] 29.1 µM | [16] 24.4 µM | [17] 26.9 µM

O=C(CCc1ccc(O)cc1)NCCCNC(=O)CCc1ccc(O)cc1
inactive: [1] > 100 µM | [2] > 100 µM | [3] > 100 µM | [4] > 100 µM | [6] > 100 µM | [19] > 100 µM | [7] > 100 µM | [8] > 100 µM | [9] > 100 µM | [10] > 100 µM | [11] > 100 µM | [12] > 100 µM | [18] > 100 µM | [13] > 100 µM | [14] > 100 µM | [15] > 100 µM | [16] > 100 µM | [17] > 100 µM
